Test results reported in patent publication US20150105252A1, “SUBSTITUTED PYRAZOLES AS HERBICIDES” (E I DU PONT DE NEMOURS AND COMPANY, priority 2013, published 2015).

Columns and labels:
pigweed [1] = experiment: Test A preemergence; format: in vivo, Amaranthus retroflexus; conditions: 0 to 100 scale
Method in brief: (§1)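 Visual injury rating, 0–100 (0 no effect, 100 complete control), vs untreated controls ~10 days after treatment in greenhouse. Pre: directed soil spray on seeded loam/sand. Post: 2–10 cm plants, 1–2 leaf stage. Formulation: non-phytotoxic solvent mix + surfactant.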

wheat [2] = experiment: Test C postemergence; format: in vivo, Triticum aestivum; conditions: postemergence; for Wheat plant response rating: 62 g ai/ha, scale 0 to 100
Text: (§2) Seeds of plant species selected from blackgrass (Alopecurus myosuroides), ryegrass, Italian (Italian ryegrass, Lolium multiflorum), wheat (winter wheat, Triticum aestivum), galium (catchweed bedstraw, Galium aparine), corn (Zea mays), crabgrass, large (large crabgrass, Digitaria sanguinalis), foxtail, giant (giant foxtail, Setaria faberii), johnsongrass (Sorghum halepense), lambsquarters (Chenopodium album), morningglory (Ipomoea coccinea), nutsedge, yellow (yellow nutsedge, Cyperus esculentus), pigweed (redroot pigweed, Amaranthus retroflexus), ragweed (common ragweed, Ambrosia elation), soybean (Glycine max), barnyardgrass (Echinochloa crus-galli), oilseed rape (Brassica napus), waterhemp (common waterhemp, Amaranthus rudis), oat, wild (wild oat, Avena fatua), kochia (Kochia scoparia), Surinam grass (Brachiaria decumbens), foxtail, green (green foxtail, Setaria viridis), goosegrass (Eleusine indica), bromegrass, downy (downy bromegrass, Bromus tectorum), nightshade (eastern black nightshade, Solanum ptycanthum), cocklebur (common cocklebur, Xanthium strumarium), cupgrass, woolly (woolly cupgrass, Eriochloa villosa), bermudagrass (Cynodon dactylon), sunflower, (common oilseed sunflower, Helianthus annuus), Russian thistle (Salsola kali), and velvetleaf (Abutilon theophrasti) were planted into a blend of loam soil and sand and treated preemergence with test chemicals formulated in a non-phytotoxic solvent mixture which included a surfactant.
(§3) At the same time, plants selected from these crop and weed species and also chickweed (common chickweed, Stellaria media), canarygrass (littleseed canarygrass, Phalaris minor), and deadnettle (henbit deadnettle, Lamium amplexicaule), were planted in pots containing Redi-Earth® planting medium (Scotts Company, 14111 Scottslawn Road, Marysville, Ohio 43041) comprising spaghnum peat moss, vermiculite, wetting agent and starter nutrients and treated with postemergence applications of test chemicals formulated in the same manner. Plants ranged in height from 2 to 18 cm (1- to 4-leaf stage) for postemergence treatments. Treated plants and controls were maintained in a greenhouse for 13 to 15 days, after which time all species were compared to controls and visually evaluated. Plant response ratings, summarized in Table C, are based on a scale of 0 to 100 where 0 is no effect and 100 is complete control. A dash (-) response means no test result.

wheat [3] = experiment: Test A postemergence; format: in vivo, Triticum aestivum
Method in brief: as §1

pigweed [4] = experiment: Test A postemergence; format: in vivo, Amaranthus retroflexus
Method in brief: as §1

morningglory = experiment: Test A postemergence; format: in vivo, Ipomoea spp.
Method in brief: as §1

corn = experiment: Test C postemergence; format: in vivo, Zea mays; conditions: for Corn plant response rating: scale 0 to 100
Text: as §2, §3

foxtail, giant = experiment: Test C preemergence; format: in vivo, Setaria faberii; conditions: for Plant response rating (scale of 0 to 100), Foxtail, Giant: Preemergence, 250 g ai/ha; for Foxtail, Giant plant response rating / Plant response rating, Foxtail, Giant: preemergence; for Plant response rating, Foxtail, Giant: 62 g ai/ha, scale 0 to 100, 0 = no effect, 100 = complete control
Text: as §2, §3

galium = experiment: Test C postemergence; format: in vivo, Galium aparine; conditions: for Galium plant response rating: scale 0 to 100
Text: as §2, §3

ryegrass, Italian = experiment: Test C preemergence; format: in vivo, Lolium multiflorum; conditions: for Plant response rating (scale of 0 to 100), Ryegrass, Italian: Preemergence, 250 g ai/ha; for Ryegrass, Italian plant response rating / Plant response rating, Ryegrass, Italian: preemergence; for Plant response rating, Ryegrass, Italian: 62 g ai/ha, scale 0 to 100, 0 = no effect, 100 = complete control
Text: as §2, §3

crabgrass, large = experiment: Test C preemergence; format: in vivo, Digitaria sanguinalis; conditions: for Plant response rating (scale of 0 to 100), Crabgrass, Large: Preemergence, 250 g ai/ha; for Crabgrass, Large plant response rating / Plant response rating, Crabgrass, Large: preemergence; for Plant response rating, Crabgrass, Large: 62 g ai/ha, scale 0 to 100, 0 = no effect, 100 = complete control
Text: as §2, §3

blackgrass = experiment: Test C preemergence; format: in vivo, Alopecurus myosuroides; conditions: for Plant response rating (scale of 0 to 100), Blackgrass: Preemergence, 250 g ai/ha; for Blackgrass plant response rating / Plant response rating, Blackgrass: preemergence; for Plant response rating, Blackgrass: 62 g ai/ha, scale 0 to 100, 0 = no effect, 100 = complete control
Text: as §2, §3

[5] = Preemergence, 1000 g ai/ha, 0 no effect, 100 complete control
[6] = 250 g ai/ha, scale 0 to 100 (0 no effect, 100 complete control)
[7] = 125 g ai/ha, scale 0 to 100, 0 no effect, 100 complete control
[8] = Postemergence, 1000 g ai/ha, visual rating after approx. 10 days, 0 to 100 scale (0 no effect, 100 complete control)
[9] = postemergence, 250 g ai/ha, scale 0 to 100 (0 no effect, 100 complete control)
[10] = postemergence, 62 g ai/ha, scale 0 to 100, 0 no effect, 100 complete control
[11] = postemergence, 125 g ai/ha, scale 0 to 100, 0 no effect, 100 complete control
[12] = 31 g ai/ha, scale 0 to 100 (0 no effect, 100 complete control), 13 to 15 days
[13] = 125 g ai/ha, scale 0 to 100, 0 is no effect, 100 is complete control
[14] = Preemergence, 500 g ai/ha, 0 no effect, 100 complete control
[15] = preemergence, 125 g ai/ha, visual injury, approx. 10 days
[16] = Postemergence, 500 g ai/ha, visual rating after approx. 10 days, 0 to 100 scale (0 no effect, 100 complete control)
[17] = postemergence, 125 g ai/ha, about 10 days, visual rating on 0 to 100 scale (0 no effect, 100 complete control)

SMILES	Pigweed plant response rating (pigweed [1]; [5])	Wheat plant response rating (wheat [2])	Plant response rating, Wheat (wheat [2]; [6])	Plant response rating, Wheat (wheat [2]; [7])	Wheat plant response rating (wheat [3]; [8])	Pigweed plant response rating (pigweed [4]; [8])	Morningglory plant response rating (morningglory; [8])	Corn plant response rating (corn; Postemergence, 31 g ai/ha)	Plant response rating, Corn (corn; [9])	Plant response rating, Corn (corn; [10])	Plant response rating, Corn (corn; [11])	Plant response rating (scale of 0 to 100), Foxtail, Giant (foxtail, giant)	Foxtail, Giant plant response rating (foxtail, giant; [12])	Plant response rating, Foxtail, Giant (foxtail, giant; 13 to 15 days)	Foxtail, Giant plant response rating (foxtail, giant; [13])	Galium plant response rating (galium; Postemergence, 31 g ai/ha)	Plant response rating, Galium (galium; [9])	Plant response rating, Galium (galium; [11])	Plant response rating (scale of 0 to 100), Ryegrass, Italian (ryegrass, Italian)	Ryegrass, Italian plant response rating (ryegrass, Italian; [12])	other results
CCc1cc(C(=O)NCC(F)(F)F)nn1Cc1cccc(OC(F)(F)F)c1 [Compound 20]	100	15	25	20	40	100	100	15	25	20	20										
CCCNC(=O)c1cc(CC)n(Cc2cccc(OC(F)(F)F)c2)n1 [Compound 27]	90	15	20	15	40	70	100	10	15	10	15										
CCc1cc(C(=O)NOC(C)C)nn1Cc1cccc(OC(F)(F)F)c1 [Compound 70]		15	25	20				10	50	40	45	98	65	75	90	70	90	75	80	20	Pigweed plant response rating (pigweed [1]; [14]): 100; Pigweed plant response rating (pigweed [1]; [15]): 100; Plant response rating, Galium (galium; [10]): 70; Wheat plant response rating (wheat [3]; [16]): 70; Wheat plant response rating (wheat [3]; [17]): 70; Pigweed plant response rating (pigweed [4]; [16]): 100; Pigweed plant response rating (pigweed [4]; [17]): 90; Plant response rating, Ryegrass, Italian (ryegrass, Italian; 13 to 15 days): 30; Ryegrass, Italian plant response rating (ryegrass, Italian; [13]): 60; Morningglory plant response rating (morningglory; [16]): 100; Morningglory plant response rating (morningglory; [17]): 100; Plant response rating (scale of 0 to 100), Crabgrass, Large (crabgrass, large): 100; Crabgrass, Large plant response rating (crabgrass, large; [12]): 95; Plant response rating, Crabgrass, Large (crabgrass, large; 13 to 15 days): 98; Crabgrass, Large plant response rating (crabgrass, large; [13]): 98; Plant response rating (scale of 0 to 100), Blackgrass (blackgrass): 85; Blackgrass plant response rating (blackgrass; [12]): 65; Plant response rating, Blackgrass (blackgrass; 13 to 15 days): 65; Blackgrass plant response rating (blackgrass; [13]): 65
CCONC(=O)c1cc(CC)n(Cc2cccc(OC(F)(F)F)c2)n1 [Compound 72]		5	10	10				10	60		10	100	65	80	85	45	80	70	95	40	Pigweed plant response rating (pigweed [1]; [14]): 100; Pigweed plant response rating (pigweed [1]; [15]): 100; Galium plant response rating (galium; postemergence, 62 g ai/ha): 70; Wheat plant response rating (wheat [3]; [16]): 80; Wheat plant response rating (wheat [3]; [17]): 70; Pigweed plant response rating (pigweed [4]; [16]): 100; Pigweed plant response rating (pigweed [4]; [17]): 90; Plant response rating, Ryegrass, Italian (ryegrass, Italian; 13 to 15 days): 85; Ryegrass, Italian plant response rating (ryegrass, Italian; [13]): 85; Morningglory plant response rating (morningglory; [16]): 90; Morningglory plant response rating (morningglory; [17]): 80; Corn plant response rating (corn; postemergence, 62 g ai/ha): 10; Plant response rating (scale of 0 to 100), Crabgrass, Large (crabgrass, large): 98; Crabgrass, Large plant response rating (crabgrass, large; [12]): 55; Plant response rating, Crabgrass, Large (crabgrass, large; 13 to 15 days): 95; Crabgrass, Large plant response rating (crabgrass, large; [13]): 98; Plant response rating (scale of 0 to 100), Blackgrass (blackgrass): 85; Blackgrass plant response rating (blackgrass; [12]): 45; Plant response rating, Blackgrass (blackgrass; 13 to 15 days): 80; Blackgrass plant response rating (blackgrass; [13]): 85
Cc1cc(C(=O)NCC(F)(F)F)nn1Cc1ccnc(C(F)(F)F)c1 [Compound 74]	100	0	5	0	90	100	100	10	55		20	100	80	100	100	60	85	80	80	5	Galium plant response rating (galium; postemergence, 62 g ai/ha): 60; Plant response rating, Ryegrass, Italian (ryegrass, Italian; 13 to 15 days): 5; Ryegrass, Italian plant response rating (ryegrass, Italian; [13]): 50; Corn plant response rating (corn; postemergence, 62 g ai/ha): 10; Plant response rating (scale of 0 to 100), Crabgrass, Large (crabgrass, large): 100; Crabgrass, Large plant response rating (crabgrass, large; [12]): 98; Plant response rating, Crabgrass, Large (crabgrass, large; 13 to 15 days): 100; Crabgrass, Large plant response rating (crabgrass, large; [13]): 100; Plant response rating (scale of 0 to 100), Blackgrass (blackgrass): 90; Blackgrass plant response rating (blackgrass; [12]): 10; Plant response rating, Blackgrass (blackgrass; 13 to 15 days): 85; Blackgrass plant response rating (blackgrass; [13]): 90
